Reference: patent US8193169B2, “(20R)-2α-methyl-19,26,2-trinor-vitamin D analogs” (Wisconsin Alumni Research Foundation, priority 2006, dated 2012)

Columns and labels:
[1] = tested on: HL-60 cells; test: HL-60 cell differentiation (nitro blue tetrazolium reduction); format: cell-based, human; details: for EC50: HL-60 cells, differentiation into monocytes, FIG. 2
Description: The study drugs were dissolved in ethanol and the concentrations determined using UV spectrophotometry. Serial dilutions were prepared so that a range of drug concentrations could be tested without changing the final concentration of ethanol (≦0.2%) present in the cell cultures.
Human promyelocytic leukemia (HL60) cells were grown in RPMI-1640 medium containing 10% fetal bovine serum. The cells were incubated at 37° C. in the presence of 5% CO2.
HL60 cells were plated at 1.2×10^5 cells/ml. Eighteen hours after plating, cells in duplicate were treated with drug. Four days later, the cells were harvested and a nitro blue tetrazolium reduction assay was performed (Collins et al., 1979; J. Exp. Med. 149:969-974). The percentage of differentiated cells was determined by counting a total of 200 cells and recording the number that contained intracellular black-blue formazan deposits. Verification of differentiation to monocytic cells was determined by measuring phagocytic activity (data not shown).

[2] = target: T1, full-length recombinant rat vitamin D receptor (Rattus norvegicus, UniProt P13053); details: compared to 1,25(OH)2D3
T1 sequence (P13053 1-423): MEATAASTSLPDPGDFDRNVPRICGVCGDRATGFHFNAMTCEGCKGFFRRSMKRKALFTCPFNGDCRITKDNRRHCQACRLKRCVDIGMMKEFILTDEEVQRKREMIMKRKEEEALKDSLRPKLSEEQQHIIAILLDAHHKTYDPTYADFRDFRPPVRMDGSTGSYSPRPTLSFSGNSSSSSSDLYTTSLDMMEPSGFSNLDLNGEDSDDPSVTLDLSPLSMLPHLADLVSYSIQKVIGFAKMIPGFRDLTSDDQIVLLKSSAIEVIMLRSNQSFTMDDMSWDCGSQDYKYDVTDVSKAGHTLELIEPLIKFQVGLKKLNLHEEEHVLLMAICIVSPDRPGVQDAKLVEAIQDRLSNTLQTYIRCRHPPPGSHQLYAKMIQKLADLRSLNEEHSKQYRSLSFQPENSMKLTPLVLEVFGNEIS

[3] = Bone calcium mobilization (serum calcium) in vitamin D-deficient rats; format: in vivo, Sprague-Dawley rats; details: vitamin D-deficient rats on 0.02% Ca diet, FIG. 4
Description: (§1) Male, weanling Sprague-Dawley rats were placed on Diet 11 (0.47% Ca) diet+AEK oil for one week followed by Diet 11 (0.02% Ca)+AEK oil for 3 weeks. The rats were then switched to a diet containing 0.47% Ca for one week followed by two weeks on a diet containing 0.02% Ca. Dose administration began during the last week on 0.02% calcium diet. Four consecutive ip doses were given approximately 24 hours apart. Twenty-four hours after the last dose, blood was collected from the severed neck and the concentration of serum calcium determined as a measure of bone calcium mobilization. The first 10 cm of the intestine was also collected for intestinal calcium transport analysis using the everted gut sac method.

[4] = target: T1, full-length recombinant rat vitamin D receptor; test: biochemical
[5] = Intestinal calcium transport, everted gut sac method, in vitamin D-deficient rats; format: in vivo, Sprague-Dawley rats; details: 35,100 pmol/day ip for 4 consecutive days, FIG. 5
Description: as §1

[6] = tested on: 24-hydroxylase (24Ohase) gene promoter; test: In vitro transcription assay, luciferase reporter in ROS 17/2.8 (bone) cells; format: cell-based; details: for EC50: ROS 17/2.8 cells, 24-hydroxylase promoter-luciferase, FIG. 3, read-out: EC50, transcriptional activity in bone cells
Description: Transcription activity was measured in ROS 17/2.8 (bone) cells that were stably transfected with a 24-hydroxylase (24Ohase) gene promoter upstream of a luciferase reporter gene (Arbour et al., 1998). Cells were given a range of doses. Sixteen hours after dosing the cells were harvested and luciferase activities were measured using a luminometer.
RLU=relative luciferase units.

[7] = compared to 1α,25-dihydroxyvitamin D3

| SMILES | EC50 ([1]; Homo sapiens) [nM] | HL-60 cell differentiation activity relative to 1α,25-dihydroxyvitamin D3 (times less activity) [1, 7] [times] | VDR binding potency relative to 1,25(OH)2D3 (times less potent) [2] | Bone calcium mobilization activity (serum calcium) ([3]; 35,100 pmol/day ip for 4 consecutive days) | Ki [4] [nM] | Intestinal calcium transport activity [5] | EC50 [6] [nM] | Transcriptional activity in bone cells relative to 1α,25-dihydroxyvitamin D3 (times less) [6, 7] | EC50 [1] [nM] | Bone calcium mobilization activity (serum calcium) ([3]; 780 pmol/day) | Serum calcium levels ([3]; all dosages) |
| --- | --- | --- | --- | --- | --- | --- | --- | --- | --- | --- | --- |
| CC(CCCCO)C1CCC2C(=CC=C3CC(O)C(C)C(O)C3)CCCC21C [B-9, (20R)-2α-methyl-19,26,27-trinor-1α,25-dihydroxyvitamin D3] | 30 | ~10 | about 10 times | did not result in any mobilization of bone calcium | 1 | did not result in any activity | 10 | about 30 times | – | – | – |
| C=C1/C(=C\C=C2/CCC[C@]3(C)[C@@H]([C@H](C)CCCC(C)(C)O)CC[C@@H]23)C[C@@H](O)C[C@@H]1O [1,25(OH)2D3, 1α,25-dihydroxyvitamin D3, reference compound] | – | – | – | – | – | – | 0.3 | – | 2 | significant activity | increased serum calcium levels at all dosages |
